Where no end group is shown, it is not given here.
Legend:
Assay type in all cases: biochemical, rat
[1] = system: somatostatin convertase; assay: Conversion of iodine-125-labeled peptide I by brain extracts, specific activity (% of peptide II generated); settings: molecular sieve fraction, peptide I (20,000 cpm), 2 hours, % of starting materials
Experimental: (§1) Male Wistar rats (100-120 g) were sacrificed by quick decapitation and the cerebral cortex was removed immediately. The fresh dissected tissue was homogenized in a Potter Elvehjem apparatus in a buffer solution of phosphate (pH 7.4) at a concentration of 50 mM and potassium chloride at a concentration of 200 mM (5 ml of buffer per cortex).
(§2) The extract was then centrifuged at 3000×g for 15 minutes and the supernatant was filtered on a Sephadex G-150 column in 0.25M Tris-HCl (pH 7).
(§3) The proteolytic activities were tested in the following way. The peptide I labeled with iodine 125 (20,000 cpm), dissolved in 10 μl of 250 mM Tris-HCl (pH 7), was incubated at 37° C. with an aliquot either of crude extract of rat cerebral cortex or of fractions derived from gel filtration or derived from ion exchange chromatography (final volume of 300 μl in 0.25M Tris-HCl (pH 7)).
(§4) 50 μl samples of the mixture were taken at different times during the reaction and the reaction was stopped by the addition of 600 μl of CM-52 resin in 30 mM ammonium acetate (pH 6) (1:10, vol./vol.). The mixture was then centrifuged at 10,000×g for 30 seconds on a Beckman microcentrifuge. […] After the second washing by elution at each of its saline concentrations, the iodinated products retained on the resin were counted.
(§5) The results were calculated as follows: [formula] where the specific activity represents the percentage of peptides II generated, the undesirable activity represents the percentage of Asn-^125 I-Tyr(NH2) generated, t is the total cpm in 50 μl of the mixture, x1 is the cpm found after washing with the 30 mM ammonium acetate, x2 is the cpm found after washing with the 100 mM ammonium acetate, and y1 and y2 are the cpm values found respectively after the 30 mM and 100 mM washings of the resin with the peptide I by itself.
(§6) The extracts were obtained from three regions of the brain and were fractionated by filtration on a molecular sieve. A 50 μl aliquot corresponding to an activity peak was incubated with the peptide I (20,000 cpm) for 2 hours and the products were analyzed by ion exchange.

[2] = system: undesirable activity; assay: Conversion of iodine-125-labeled peptide I by brain extracts, undesirable activity (% of Asn-^125 I-Tyr(NH2) generated); settings: molecular sieve fraction, peptide I (20,000 cpm), 2 hours, % of starting materials
Experimental: as §1, §2, §3, §4, §5, §6

[3] = system: somatostatin convertase; assay: Competition of peptides with iodinated peptide I in the enzymatic conversion by somatostatin convertase; settings: 1 μl of each peptide or 2 μg of somatostatin 28; ^125 I peptide I (30,000 cpm), pH 7, 37° C., 2 hours; 0% = maximum conversion of peptide I to peptide II
Experimental: The ability of several analogous peptides to compete with the peptide I in the enzymatic conversion was evaluated by means of competition experiments. The results given in the table which follows indicate that either the peptide of 28 AA (S-28) or the noniodinated substrate of II AA (deiodinated peptide I) competed effectively (75% and 85% respectively) with the iodinated peptide I. It is interesting to observe that simple replacement of Lys with Arg in the dibasic doublet (cleavage site) produced a peptide III, which competed with the iodinated substrate (peptide I) with an efficacy of only 30%.
The enzyme prepared from the Sephadex G150 column was incubated in a
mixture containing either 1 μl of each of the peptides described above
or 2 μg of somatostatin 28 and ^125 IPeptide I (30,000 cpm) in a
buffer solution of TrisHCl (pH 7) at 37° C. for 2 hours. 0%
inhibition corresponds to a maximum conversion of the peptide I to the […]

Which results are given for “Ala-Gly-Ala-Lys-Asn-Tyr(NH2)* [Peptide II]”?
% of products generated, Peptide II labeled with 125I ([1]; Hypothalamus extract): 7%; % of products generated, Peptide II labeled with 125I ([1]; Neocortex extract): 18%; % of products generated, Peptide II labeled with 125I ([1]; Pituitary gland extract): 20%

For Asn-^125 I-Tyr(NH2), which “% of products generated, Asn-^125 I-Tyr(NH2)” value ([2]; Hypothalamus extract) is on record?
The value was 90%.

What about the “% of products generated, Asn-^125 I-Tyr(NH2)” value ([2]; Neocortex extract) of the same substance?
The value was 40%.

And the “% of products generated, Asn-^125 I-Tyr(NH2)” value ([2]; Pituitary gland extract)?
The value was 37%.

With PRERKAGAKNY-NH2 [De^125 IPeptide I] as the substance, how does the “% inhibition of the conversion activity (competition with iodinated peptide I)” value [3] read?
The value was 85%.

Which “% inhibition of the conversion activity (competition with iodinated peptide I)” value [3] does the source give for “Somatostatin 28: direct precursor of somato 14, a peptide consisting of 28 AA [reference compound]” here?
The value was 75%.

— US4892813A, “Method for the determination of the enzymatic activity of convertase” (Centre National de la Recherche Scientifique, priority 1987, dated 1990)
